Test results as given in patent US12422427B2, “Compounds for treatment of diseases and methods of screening therefor” (Max-Planck-Gesellschaft zur Förderung der Wissenschaften …, priority 2018, dated 2025).

Columns and labels:
FUS GFP [1] = target: T1, FUS GFP (Homo sapiens, UniProt P35637); assay: In vitro purified FUS GFP droplet screen; type: biochemical; settings: low salt conditions, 1 mM DTT, up to 100 μM compound
T1 construct: His MBP (N, cleaved yes); made in house; host or cells: baculovirus/insect cell expression system
T1 sequence (P35637 1-526): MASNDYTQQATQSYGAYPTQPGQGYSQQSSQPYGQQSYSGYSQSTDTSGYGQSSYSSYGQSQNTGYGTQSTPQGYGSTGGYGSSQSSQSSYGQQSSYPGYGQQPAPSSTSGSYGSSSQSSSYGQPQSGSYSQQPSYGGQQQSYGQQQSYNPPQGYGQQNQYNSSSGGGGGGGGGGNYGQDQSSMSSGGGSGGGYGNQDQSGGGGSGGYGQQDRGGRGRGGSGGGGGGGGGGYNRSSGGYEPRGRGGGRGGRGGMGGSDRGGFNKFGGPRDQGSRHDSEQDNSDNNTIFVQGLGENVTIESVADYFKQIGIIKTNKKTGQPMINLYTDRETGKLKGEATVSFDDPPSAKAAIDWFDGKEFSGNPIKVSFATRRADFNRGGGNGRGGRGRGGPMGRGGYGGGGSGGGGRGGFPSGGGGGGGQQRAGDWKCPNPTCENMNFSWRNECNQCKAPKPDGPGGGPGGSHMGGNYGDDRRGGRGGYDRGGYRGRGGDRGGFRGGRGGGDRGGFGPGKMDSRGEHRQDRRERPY
Protocol: Compounds that can directly interact with FUS were of primary interest, therefore the inventors performed a follow up screen for action of compounds on FUS droplet formation in vitro (FIG. 1D). […] Hits were identified by the effect on number of FUS droplets formed and the partition of FUS into the droplets formed under low salt conditions in vitro in the presence of 1 mM DTT to mimic the reducing intracellular environment (FIG. 1E).
The effect of compounds on FUS GFP droplets in vitro was assessed in 384 well plate format. The compound volume (in DMSO) necessary for 1, 3, 10, 30 or 100 μM final concentration were added by acoustic dispensing (Labcyte Echo 550) to 96 well plate wells containing 3 μl FUS GFP diluted in 50 mM Tris. HCl pH 7.4, 1 mM DTT (for low salt assays). Final DMSO concentration was 0.01 to 1%. Using a Freedom Evo 200 liquid handling workstation (TECAN) the FUS GFP/compound mixture was diluted in 7 μl assay buffer containing 50 mM Tris. HCl pH 7.4, 1 mM DTT, 50 mM KCl and 0.7 μM FUS GFP. Compound/FUS GFP and assay buffer were mixed by a standardised pipetting procedure then split to four wells in clear bottom 384 well plates then immediately imaged using a CellVoyager CV7000 automated spinning disc confocal microscope (as above). […] Droplet number and FUS GFP partition into droplets were analysed with a fixed intensity threshold using ImageJ.

[2] = system: HeLa cells expressing FUS GFP; assay: HeLa cell compound dose responses (FUS GFP, arsenate stress); type: cell-based; settings: 1 h pre-treatment, 1 h arsenate stress
Protocol: Small dilution steps rather than concentration replicates were selected as it provides greater statistical power from a set number of samples. Final DMSO concentration was 0.08% in all samples, and each plate included at least 12 control wells with 0.08% DMSO. Cytoplasmic FUS droplet number and nuclear/cytoplasm partition of FUS were analysed using custom macros in ImageJ. Nuclei were identified by intensity thresholding of the blue fluorescence image following a 5 px Gaussian blur. Cytoplasmic FUS droplets by intensity thresholding of the green image following a 10 px weight 0.9 unsharp filter masked by the thresholded nuclei, and nuclear FUS droplets by intensity thresholding of the green image following a 5 px weight 0.9 unsharp filter and 10 px rolling ball background subtraction masked to only include thresholded nuclei. The ratio of cytoplasmic FUS drops to nuclei was taken as cytoplasmic FUS droplets per cell per field of view, and p, the ratio of partition of FUS to the nucleus and the cytoplasm, was derived from a=Vn/vt, the ratio of nuclear to total green signal per field of view, where p=a/(1−a). […] Six fields of view were captured and analysed per condition.

[3] = system: P bodies, Cajal bodies, PML bodies, DNA damage foci, nucleolus; assay: Effect on other non-membrane bound compartments in HeLa GFP marker lines; type: cell-based
Protocol: FIG. 4A) Images of HeLa cells expressing Protein GFP markers of other non-membrane bound compartments subject to 1 h treatment with 10 μM compound (or DMSO control). Where unclear, the position of nuclei is indicated with a dotted outline. […] FIG. 4B) Recruitment of FUS GFP to sites of UV laser-induced DNA damage in iPS cells after 1 h treatment with compound followed by 1 h arsenate stress.
Stress granules are one of several, similar, cytoplasmic RNA-containing liquid-like compartments. […] Several stress granule proteins also form nuclear bodies: nuclear paraspeckles, and foci at the sites of DNA damage. There are also many other nuclear liquid-like compartments. It was then asked whether lipoamide also affected these other bodies, using a panel of cell lines expressing GFP fusions. For this analysis, mitoxantrone was included as a representative of the heterotri-/tetracyclic compound class of hits (FIG. 1F). An overly-broad effect on liquid-like compartments would likely cause side-effects for a therapeutic.
The action of lipoamide is therefore specific to the signaling and/or physical chemistry driving stress granule formation, stress granule phase separation, and/or a specific signaling route. Stress granules normally form and dissolve rapidly in comparison to many other compartments.

FUS GFP [4] = assay: Ex vivo DNA cut assay: FUS GFP recruitment to UV laser-induced DNA damage; type: cell-based, human
From the text: FUS is recruited to sites of DNA damage, and a potential mechanism contributing to ALS pathogenesis is reduced DNA damage response due to sequestration of FUS in the cytoplasm in stress granules. Strong association of FUS nuclear localization (NLS) mutations (e.g., P525L) with familial ALS mutations supports this hypothesis. The inventors therefore tested whether lipoamide affect FUS recruitment to sites of DNA damage induced by focused UV laser irradiation site, using arsenate-stressed iPSCs expressing FUS GFP (FIG. 4B). […] The action of lipoamide is therefore specific to cytoplasmic FUS liquid-like compartments, a therapeutically useful feature.
UV micro-irradiation of live cells was performed to induce DNA damage. KOLF iPS MNs expressing […] were […]. A single point in the nucleus was subject to 3 UV pulses as described for FRAP, but at 10% laser power. GFP fluorescence was imaged at 1 Hz, and intensity of response was analysed in ImageJ.

[5] = target: T2, FUS low complexity domain (residues 1 to 163) (Homo sapiens, UniProt P35637); assay: 1H-15N HSQC NMR of FUS low complexity domain with compound; type: binding; settings: 500 μM compound
T2 construct: untagged FUS low complexity domain (residues 1 to 163) expressed, purified and analysed; made in house
T2 sequence (P35637 1-163): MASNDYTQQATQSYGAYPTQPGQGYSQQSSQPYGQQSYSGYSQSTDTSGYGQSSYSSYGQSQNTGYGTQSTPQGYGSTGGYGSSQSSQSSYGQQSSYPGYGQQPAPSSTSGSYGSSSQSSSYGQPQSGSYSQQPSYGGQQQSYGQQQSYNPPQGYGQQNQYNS
Protocol: Finally, mechanistic detail was analyzed at the sub-molecular level by using NMR of the FUS prion-like N-terminal LCD to determine putative sites of lipoamide interaction. The LCD is able to phase separate to form condensates in vitro and the individual residues can be resolved and assigned in a ^1H-^15N heteronuclear single quantum coherence spectrum. ^1H-^15N analyses reveal a change in environment of individual residues as indicated by their corresponding chemical shifts. The magnitude of chemical shift changes were compared with and without both lipoamide or mitoxantrone. […] This leaves several possibilities: Perhaps lipoamide interacts with the FUS LCD only when phase separated, potentially reducing viscosity, or interacts with the condensate phase boundary, perhaps increasing surface tension. Such interactions may reduce formation or expansion of aggregated forms of FUS involved in condensate hardening and reduced liquidity.
For analysis of compound interaction with FUS untagged FUS low complexity domain (residues 1 to 163) expressed, purified and analysed using ^1H-^15N heteronuclear single quantum coherence NMR and sample conditions previously described^14 in the presence of 500 μM compound or equivalent DMSO solvent control (1%).

## O=C1c2c(O)ccc(O)c2C(=O)c2c(NCCNCCO)ccc(NCCNCCO)c21 [mitoxantrone, reference compound]
FUS GFP [1]
  FUS GFP droplet number, partition into droplets and droplet size: fewer smaller drops
[2]
  nuclear/cytoplasm FUS partition, dose response: decreased nuclear/cytoplasm FUS partition
  stress granule number, dose response: reducing stress granule number
[3]; 1 h treatment with 10 μM compound
  disruption of P bodies (DCP1A), Cajal bodies (COIL), DNA damage foci (TRP53BP1), nucleolus (NCB1): non-stress granule specific effects
[3]; conditions that would dissolve stress granules
  localization of P-body, PML body and DNA damage focus proteins: affected all of these compartments to some extent
FUS GFP [4]; concentrations not sufficient to dissolve cytoplasmic FUS droplets
  FUS GFP recruitment to sites of DNA damage: blocked recruitment of FUS GFP to sites of DNA damage
FUS GFP [4]; iPS cells, arsenate stress
  formation of nuclear FUS droplets at the sites of DNA damage (FIG. 4B legend): prevents formation of nuclear FUS droplets
[5]
  chemical shift changes of FUS LCD residues: weak shifts across the LCD
